In brackets after ≈: the same amount, converted by molar mass.
Test system: not listed separately
Experiment: Solubility (structure-activity remark)
Format: physicochemical
Details: one rhamnose introduced into emodin

With `CC(=O)O[C@@H]1[C@@H](O)[C@H](C)O[C@@H](Oc2cc(O)c3c(c2)C(=O)c2cc(C)cc(O)c2C3=O)[C@@H]1OC(C)=O` [S-3] the “Solubility of derivative relative to emodin” value was “improved”.

Test system: HeLa cells
Experiment: MTT cell viability assay, HeLa
Format: cell-based, Human
Details: Homo sapiens, HeLa; MTT, 72 hours; read-out: IC50 values, HeLa
Protocol: (§1) The viability of cancer cells was evaluated by MTT assay. Briefly, cells were inoculated in 96-well culture plates at the density of 1×10^4/well with complete medium containing 10% fetal calf serum in a final volume of 0.2 mL. Cells were incubated at 37°C for at least 24 hours to allow optimal attachment. When the cells reached 60% confluence, they were treated with Cisplatin, HCPT and emodin rhamnopyranosides derivatives in various concentrations, and incubated in a humidity-controlled 5%CO2 incubator at 37°C for 72 hours. Medium were exchanged once every 24 hours. Cell control group and blank group were set up in the same manner, with each group having six parallel wells. Cell survival was assessed by directly adding 22 μL of 5mg/mL MTT to 0.2 mL medium. After three hours, the formazan precipitate was dissolved in 200μL isopropanol per well, and completely mixed under room temperature. Afterwards, the optical density of each well was detected at 570 nm wavelength by iMark microplate reader (Bio-rad,USA). This experiment was repeated at least three times.

First: Cc1cc(O)c2c(c1)C(=O)c1cc(O)cc(O)c1C2=O [S-1, 3-methyl-1,6,8-trihydroxyanthraquinone, reference compound]
Second: Cc1cc(O)c2c(c1)C(=O)c1cc(O[C@@H]3O[C@@H](C)[C@H](O)[C@@H](O)[C@H]3O)cc(O)c1C2=O [S-2]
The IC50 of the first is lower: 12.1 µg/mL (≈ 44.9 µM) for the first, over 20 µg/mL for the second.

`CC(=O)O[C@@H]1[C@@H](O)[C@H](C)O[C@@H](Oc2cc(O)c3c(c2)C(=O)c2cc(C)cc(O)c2C3=O)[C@@H]1OC(C)=O` [S-3] and `CC(=O)O[C@@H]1[C@@H](O)[C@@H](OC(C)=O)[C@H](Oc2cc(O)c3c(c2)C(=O)c2cc(C)cc(O)c2C3=O)O[C@H]1C` [S-4] cannot be ordered by IC50: over 20 µg/mL for the first, over 20 µg/mL for the second.

Going from `CC(=O)O[C@@H]1[C@@H](OC(C)=O)[C@@H](O)[C@H](Oc2cc(O)c3c(c2)C(=O)c2cc(C)cc(O)c2C3=O)O[C@H]1C` [S-5] to `CC(=O)O[C@@H]1[C@@H](O)[C@@H](O)[C@H](Oc2cc(O)c3c(c2)C(=O)c2cc(C)cc(O)c2C3=O)O[C@H]1C` [S-6], the IC50 rises from 5.34 µg/mL (≈ 10.7 µM) to over 20 µg/mL.

`COc1cc(C)cc2c1C(=O)c1c(OC)cc(O[C@@H]3O[C@@H](C)[C@H](O)[C@@H](OC(C)=O)[C@H]3OC(C)=O)cc1C2=O` [S-9] showed an IC50 of 4.93 µg/mL (≈ 9.33 µM).

Test system: HepG2 cells
Experiment: Fluorescence microscopy assay (Hoechst 33342)
Format: cell-based, Human
Details: HepG2, 2.5μM, 48h
Protocol: HepG2 cells were inoculated in duplicate at 3×10^5/well density in 6-well plate, and allowed to attach at 37°C for 24 hours. Afterwards, cells were treated with 10 μM HCPT, 25 μM emodin and specific concentration EM-d-Rha (0.1μM, 0.5μM, 2.5μM), respectively. Cell control group was set in the same way. […] Medium were exchanged as described previously. In the end, all medium were discarded and cells were digested with 2mL 0.25% Trypsin-EDTA solution at 37°C for 5 min. After cells were harvested, cells were washed with PBS twice followed by centrifuging at 300×g for 5 minutes. Finally, cells were re-suspended in 100μL cold PBS after the supernatant was discarded. Cells were cultured in the dark for 10 minutes at room temperature after adding 100μL 1mg/mL Hoechst 33342 staining solution. Cells were harvested again as described previously to discard the staining solution. Wash the harvested cells twice with PBS before applying to the clean glass slides. The morphological changes of cells nuclei were observed and photographed under the fluorescence microscope (Olympus, Japan) at 350 nm excitation wavelength. The experiment was repeated three times.

For `CC[C@@]1(O)C(=O)OCc2c1cc1n(c2=O)Cc2cc3cc(O)ccc3nc2-1` [HCPT], the “Nuclear morphology, Hoechst 33342” value was “typical apoptotic nuclear morphology”.

Same assay, conditions: HepG2, 25μM

In the case of `Cc1cc(O)c2c(c1)C(=O)c1cc(O)cc(O)c1C2=O` [S-1, 3-methyl-1,6,8-trihydroxyanthraquinone, reference compound], the “Nuclear morphology, Hoechst 33342” value is reported as “displayed apoptotic morphological changes”.

Test system: HepG2 cells
Experiment: MTT cell viability assay, HepG2
Format: cell-based, Human
Details: Homo sapiens, HepG2; MTT, 72 hours; read-out: IC50 values, HepG2
Protocol: as §1

Going from `Cc1cc(O)c2c(c1)C(=O)c1cc(O)cc(O)c1C2=O` [S-1, 3-methyl-1,6,8-trihydroxyanthraquinone, reference compound] to `Cc1cc(O)c2c(c1)C(=O)c1cc(O[C@@H]3O[C@@H](C)[C@H](O)[C@@H](O)[C@H]3O)cc(O)c1C2=O` [S-2], the IC50 rises from 12.8 µg/mL (≈ 47.3 µM) to over 20 µg/mL.

`CC(=O)O[C@@H]1[C@@H](O)[C@H](C)O[C@@H](Oc2cc(O)c3c(c2)C(=O)c2cc(C)cc(O)c2C3=O)[C@@H]1OC(C)=O` [S-3] and `CC(=O)O[C@@H]1[C@@H](O)[C@@H](OC(C)=O)[C@H](Oc2cc(O)c3c(c2)C(=O)c2cc(C)cc(O)c2C3=O)O[C@H]1C` [S-4] cannot be ordered by IC50: over 20 µg/mL for the first, over 20 µg/mL for the second.

First: CC(=O)O[C@@H]1[C@@H](OC(C)=O)[C@@H](O)[C@H](Oc2cc(O)c3c(c2)C(=O)c2cc(C)cc(O)c2C3=O)O[C@H]1C [S-5]
Second: CC(=O)O[C@@H]1[C@@H](O)[C@@H](O)[C@H](Oc2cc(O)c3c(c2)C(=O)c2cc(C)cc(O)c2C3=O)O[C@H]1C [S-6]
The IC50 of the first is lower: 1.32 µg/mL (≈ 2.64 µM) for the first, over 20 µg/mL for the second.

`COc1cc(C)cc2c1C(=O)c1c(OC)cc(O[C@@H]3O[C@@H](C)[C@H](O)[C@@H](OC(C)=O)[C@H]3OC(C)=O)cc1C2=O` [S-9] showed an IC50 of 4.43 µg/mL (≈ 8.38 µM).

Test system: OVCAR-3 cells
Experiment: MTT cell viability assay, OVCAR-3
Format: cell-based, Human
Details: Homo sapiens, OVCAR-3; MTT, 72 hours; read-out: IC50 values, OVCAR-3
Protocol: as §1

`Cc1cc(O)c2c(c1)C(=O)c1cc(O)cc(O)c1C2=O` [S-1, 3-methyl-1,6,8-trihydroxyanthraquinone, reference compound] and `Cc1cc(O)c2c(c1)C(=O)c1cc(O[C@@H]3O[C@@H](C)[C@H](O)[C@@H](O)[C@H]3O)cc(O)c1C2=O` [S-2] cannot be ordered by IC50: 25.8 µg/mL (≈ 95.5 µM) for the first, over 20 µg/mL for the second.

`CC(=O)O[C@@H]1[C@@H](O)[C@H](C)O[C@@H](Oc2cc(O)c3c(c2)C(=O)c2cc(C)cc(O)c2C3=O)[C@@H]1OC(C)=O` [S-3] and `CC(=O)O[C@@H]1[C@@H](O)[C@@H](OC(C)=O)[C@H](Oc2cc(O)c3c(c2)C(=O)c2cc(C)cc(O)c2C3=O)O[C@H]1C` [S-4] cannot be ordered by IC50: over 20 µg/mL for the first, over 20 µg/mL for the second.

`CC(=O)O[C@@H]1[C@@H](OC(C)=O)[C@@H](O)[C@H](Oc2cc(O)c3c(c2)C(=O)c2cc(C)cc(O)c2C3=O)O[C@H]1C` [S-5] and `CC(=O)O[C@@H]1[C@@H](O)[C@@H](O)[C@H](Oc2cc(O)c3c(c2)C(=O)c2cc(C)cc(O)c2C3=O)O[C@H]1C` [S-6] cannot be ordered by IC50: over 20 µg/mL for the first, over 20 µg/mL for the second.

`COc1cc(C)cc2c1C(=O)c1c(OC)cc(O[C@@H]3O[C@@H](C)[C@H](O)[C@@H](OC(C)=O)[C@H]3OC(C)=O)cc1C2=O` [S-9] showed an IC50 of 9.72 µg/mL (≈ 18.4 µM).

Test system: MDCK cells
Experiment: MTT cell viability assay, MDCK
Format: cell-based, Canine
Details: Canis lupus familiaris, 72 hours
Protocol: as §1

Compared with `Cc1cc(O)c2c(c1)C(=O)c1cc(O)cc(O)c1C2=O` [S-1, 3-methyl-1,6,8-trihydroxyanthraquinone, reference compound], `Cc1cc(O)c2c(c1)C(=O)c1cc(O[C@@H]3O[C@@H](C)[C@H](O)[C@@H](O)[C@H]3O)cc(O)c1C2=O` [S-2] is higher in IC50: 5.81 µg/mL (≈ 21.5 µM) for the first, over 20 µg/mL for the second.

`CC(=O)O[C@@H]1[C@@H](O)[C@H](C)O[C@@H](Oc2cc(O)c3c(c2)C(=O)c2cc(C)cc(O)c2C3=O)[C@@H]1OC(C)=O` [S-3] and `CC(=O)O[C@@H]1[C@@H](O)[C@@H](OC(C)=O)[C@H](Oc2cc(O)c3c(c2)C(=O)c2cc(C)cc(O)c2C3=O)O[C@H]1C` [S-4] cannot be ordered by IC50: over 20 µg/mL for the first, over 20 µg/mL for the second.

`CC(=O)O[C@@H]1[C@@H](OC(C)=O)[C@@H](O)[C@H](Oc2cc(O)c3c(c2)C(=O)c2cc(C)cc(O)c2C3=O)O[C@H]1C` [S-5] and `CC(=O)O[C@@H]1[C@@H](O)[C@@H](O)[C@H](Oc2cc(O)c3c(c2)C(=O)c2cc(C)cc(O)c2C3=O)O[C@H]1C` [S-6] are within 1.5-fold of each other in IC50: 14.8 µg/mL (≈ 29.6 µM) for the first, 21.1 µg/mL (≈ 46 µM) for the second.

`COc1cc(C)cc2c1C(=O)c1c(OC)cc(O[C@@H]3O[C@@H](C)[C@H](O)[C@@H](OC(C)=O)[C@H]3OC(C)=O)cc1C2=O` [S-9] gave an IC50 of 1.39 µg/mL (≈ 2.63 µM).

Test system: A549 cells
Experiment: MTT cell viability assay, A549
Format: cell-based, Human
Details: Homo sapiens, A549; MTT, 72 hours; read-out: IC50 values, A549
Protocol: as §1

Compared with `Cc1cc(O)c2c(c1)C(=O)c1cc(O)cc(O)c1C2=O` [S-1, 3-methyl-1,6,8-trihydroxyanthraquinone, reference compound], `Cc1cc(O)c2c(c1)C(=O)c1cc(O[C@@H]3O[C@@H](C)[C@H](O)[C@@H](O)[C@H]3O)cc(O)c1C2=O` [S-2] is higher in IC50: 19.5 µg/mL (≈ 72.3 µM) for the first, over 20 µg/mL for the second.

Going from `CC(=O)O[C@@H]1[C@@H](O)[C@H](C)O[C@@H](Oc2cc(O)c3c(c2)C(=O)c2cc(C)cc(O)c2C3=O)[C@@H]1OC(C)=O` [S-3] to `CC(=O)O[C@@H]1[C@@H](O)[C@@H](OC(C)=O)[C@H](Oc2cc(O)c3c(c2)C(=O)c2cc(C)cc(O)c2C3=O)O[C@H]1C` [S-4], the IC50 falls from over 20 µg/mL to 9.27 µg/mL (≈ 18.5 µM).

`CC(=O)O[C@@H]1[C@@H](OC(C)=O)[C@@H](O)[C@H](Oc2cc(O)c3c(c2)C(=O)c2cc(C)cc(O)c2C3=O)O[C@H]1C` [S-5] and `CC(=O)O[C@@H]1[C@@H](O)[C@@H](O)[C@H](Oc2cc(O)c3c(c2)C(=O)c2cc(C)cc(O)c2C3=O)O[C@H]1C` [S-6] are within 1.5-fold of each other in IC50: 3.16 µg/mL (≈ 6.31 µM) for the first, 2.25 µg/mL (≈ 4.91 µM) for the second.

With `COc1cc(C)cc2c1C(=O)c1c(OC)cc(O[C@@H]3O[C@@H](C)[C@H](O)[C@@H](OC(C)=O)[C@H]3OC(C)=O)cc1C2=O` [S-9] the IC50 was 3.63 µg/mL (≈ 6.87 µM).

From article PMC4684281, “Antitumor Effects and Mechanism of Novel Emodin Rhamnoside Derivatives against Human Cancer Cells In Vitro” (PLoS ONE, 2015)
